Biological target: Serine/threonine-protein phosphatase 5 (Homo sapiens) (UniProt P53041)
Test: Inhibition of His-tagged PP5 (unknown origin) expressed in Escherichia coli BL21 cells using para-nitrophenyl phosphate as substrate incubated for 5 to 10 mins by microplate reader based spectrophotometric analysis

Sequence of Serine/threonine-protein phosphatase 5 (Homo sapiens) (P53041 whole entry, looked up): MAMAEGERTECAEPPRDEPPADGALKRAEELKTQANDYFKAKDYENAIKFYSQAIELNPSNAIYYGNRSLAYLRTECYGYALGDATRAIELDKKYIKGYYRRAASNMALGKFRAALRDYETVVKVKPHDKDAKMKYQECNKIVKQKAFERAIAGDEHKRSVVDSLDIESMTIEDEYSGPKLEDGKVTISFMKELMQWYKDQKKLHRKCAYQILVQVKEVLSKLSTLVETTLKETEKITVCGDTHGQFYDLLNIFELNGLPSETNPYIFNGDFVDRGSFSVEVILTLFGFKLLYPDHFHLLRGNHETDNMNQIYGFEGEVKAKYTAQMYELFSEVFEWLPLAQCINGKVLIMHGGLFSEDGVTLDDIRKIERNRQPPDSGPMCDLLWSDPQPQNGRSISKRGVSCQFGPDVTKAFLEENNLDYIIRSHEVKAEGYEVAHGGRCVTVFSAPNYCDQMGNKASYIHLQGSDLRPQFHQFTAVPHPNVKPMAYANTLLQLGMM

SMILES | IC50
O=C(Nc1nc2ccccc2s1)C(c1ccccc1)S(=O)(=O)O (centres undefined) | > 200 µM
O=C(Nc1cnc2ccccc2c1)C(c1ccccc1)S(=O)(=O)O (centres undefined) | > 200 µM
O=C(Nc1ccc(N2CCOCC2)cc1)C(c1ccccc1)S(=O)(=O)O (centres undefined) | > 200 µM
O=C(Nc1ccc2nc(C(F)(F)F)[nH]c2c1)C(c1ccccc1)S(=O)(=O)O (centres undefined) | > 200 µM
